Measured values as given in patent US11447534B2, “Peptide complex with immunodulatory and anti-inflammatory function” (NATIONAL INSTITUTE OF IMMUNOLOGY, priority 2018, dated 2022).

Key:
Abeta42 = target: T1, Abeta42 (Homo sapiens, UniProt P05067); assay: Abeta42 fibrillization in situ (TEM, Thioflavin T binding assay); assay type: biochemical; conditions: Abeta42 100 μM + Glu-OC 3 ng vs Abeta42 control, 8th hour
T1 construct: of Abeta 1-42 peptide; Molecular weight = 4514.1; purchased r-peptide
Method: For this study, different concentrations of Glu-OC viz. […] After keeping the samples for 5 minutes, the excess was washed off with ultrapure water and surplus sample and water were wicked away using absorbent paper. The samples were negatively stained using 1% uranyl acetate stain, dried and analyzed in a transmission electron microscope CM10 Philips operated at 80 kV. […] ThT assay measures the changes in fluorescence intensity of ThT upon binding to amyloid fibrils. […] The resulting ThT fluorescence intensities of samples were measured at an emission wavelength of 480 nm and excitation wavelength of 440 nm and 5 nm slit width using a Jobin Vyon Horiba Fluoromax-4 spectrofluorimeter. The inner filter effect was taken into account using the Equation: Fc=F×anti log[(Aex+Aem)/2] where Fc is the corrected flourescence and F is apparent fluorescence, Aex and Aem are the absorbances of the samples at excitation and emission wavelengths respectively.

macrophages = assay: Uptake of fluorescent CD36 ligands by macrophages (FACS); assay type: cell-based, murine; conditions: macrophages pre-treated half an hour, ligand 1 hour
Method: Briefly, 50 μl of 100 μM Abeta was pH adjusted to pH 9 with 5 microlitre of 1 M NaHCO3, followed by addition of 4 microlitre of the H2O solubilized reactive dye. Incubation at room temperature (˜22° C.) was performed for 15 min followed by immediate addition of 55 microlitre of the labeling reaction mixture onto a spin column packed with a 425 microlitre slurry of Biogel P-6 resin for removal of unincorporated dye. The resulting eluent (pH 7.4) was stored for up to 2 days at 4° C. or used immediately for cellular uptake experiments. Both ligands were exposed after pre-treatment of cells with A-O complex for half an hour. The ligands were exposed to cell cultures for 1 hour after which cells were either quenched with trypan blue (0.2%) or given acid wash.

[1] = tested on: co-culture of osteoblast (MC3T3-E1) and osteoclast (from RAW264.7); assay: Osteoblast-osteoclast co-culture, mRNA by Real Time PCR; assay type: cell-based, mouse; conditions: 24 hours of incubation, vs basal
Method: Effect of A-O complex on bone cells: To determine whether A-O complex modulated bone cells, A-O complex was added to a co-culture system of osteoblast and osteoclast. MC3T3-E1 sub-clone 4 (pre-osteoblast cell line derived from new born mouse calvaria purchased from American Type Culture Collection) were cultured in α-MEM (Invitrogen, USA) supplemented with 10% fetal bovine serum and 1% anti-anti (Invitrogen, USA). Osteoblasts within the 4th and 10th passages were used for this study. For cell culture experiments 2×10^6 cells were seeded in 60 mm Petri plates. To initiate differentiation, cells were treated with 10 mM β-glycerophosphate and 50 μg/ml ascorbic acid. Murine RAW264.7 (macrophage) cells were used for generating osteoclasts. The cells were maintained in RPMI 1640 media supplemented with glutamine (2 mM) and FBS (10%). No trypsination was performed and subculture was done using a cell scraper after cultures reached 65-70% confluency. For generation of osteoclasts from RAW264.7 cells, cells of density 12000 cells per cm^2 were stimulated with 25 ng per ml of RANKL (directly with seeding) for 72-96 hours after which large multinucleated cells are seen and confirmed using TRAP5b assay. […] Thereafter the co-culture was exposed to A-O complex and the mRNA levels of osteocalcin and IGF-1 were analyzed by Real Time PCR.

[2] = tested on: carrageenan induced paw edema; assay: Carrageenan induced paw inflammation in mice; assay type: in vivo, mouse
Method: The effect of A-O complex was tested under in vivo conditions. Carrageenan, an inflammation inducing agent was injected into the hind foot pad of mouse to induce acute inflammation. The edema attains peak at around 3 hours post carrageenan challenge. This is a convenient model to assess the anti-inflammatory potency of test drugs to reduce or prevent the development of swelling. The protocol followed herein is as per Morris (2003) [Morris C J, 2003, Carrageenan induced paw edema in rat and mouse. In: Winyard P. G., Willoughby D. A. (eds) Inflammation Protocols. Methods in Molecular Biology, Vol 225. Humana Press. Pp 115-121].
Preparation of carrageenan: To prepare 0.5% of carrageenan solution, 50 mg of lamda-carrageenan ([…], Sigma Chemical Co., St. Louis, Mo., USA) was slowly added onto a small beaker containing 10 ml of normal saline. The powder was allowed to swell for some time and then slightly heated (not boiled) to dissolve the carrageenan. The solution was stirred during the heating. Once dissolved, the solution was cooled and aliquoted and stored at 4 degree Celsius.
Method: For experiment, the mice were acclimatized in cages under standard light and temperature settings with access to food and water ad libitum. Mice were acclimatized for 1 week in respective cages to minimize stress. At the day of experiment, mice were placed in a temporary animal restraint and 50 microlitre of carrageenan solution was administered by intraplantar injection to the right hind paw of each mouse. The left paw served as control and was administered 50 microlitre of normal saline.
To determine the efficacy of A-O complex different concentrations of complex viz. 5, 20 and 50 microgram per 100 g body weight of mice were administered intraperitoneally 1 hour before carrageenan challenge. Ibuprofen (100 mg/kg, Sigma Chemical Co., St. Louis, Mo., USA) served as positive control for the experiment. Paw size was measured by wrapping a piece of cotton thread round the paw of each […] and recording the length of the thread, the paw circumference, by use of a metric ruler. Paws were measured immediately before and at specified time points after carrageenan injection. Inhibitory activity was calculated at 1-5 h after carrageenan injection with the following formula: % Inhibition=[(Ct−C0)control−(Ct−C0)treated]/(Ct−C0)control×100, where Ct is paw size after carrageenan injection and C0 is paw size before carrageenan injection.

T1 sequence (P05067 672-713): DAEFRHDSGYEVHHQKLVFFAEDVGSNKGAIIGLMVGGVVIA

## A-O complex: peptide complex of 100 μM Abeta1-42 (SEQ ID NO: 1) and 3 ng Glu-OC (SEQ ID NO: 2), incubated at 37° C. for 4 hours
Abeta42
  ThT fluorescence emission: high enhancement of fluorescence emission of ThT
macrophages
  uptake of mutant Abeta42 (mutant Aβ): facilitates the uptake
  uptake of oxidized-lipoprotein (oxLDL): facilitates the uptake
[1]
  mRNA transcripts of IGF-1: significantly higher
  mRNA transcripts of osteocalcin: significantly higher
[2]; 5 microgram per 100 g body weight i.p. 1 hour before carrageenan, first value (1 hour)
  reduction in paw edema: 25%
[2]; 5 microgram per 100 g body weight i.p., second value (3rd hour)
  reduction in paw edema: 48%
[2]; 5 microgram per 100 g body weight i.p., third value (5th hour)
  reduction in paw edema: 58%
[2]; 20 microgram per 100 g body weight i.p., first value (1 hour)
  reduction in paw edema: 30%
[2]; 20 microgram per 100 g body weight i.p., second value (3rd hour)
  reduction in paw edema: 60%
[2]; 20 microgram per 100 g body weight i.p., third value (5th hour)
  reduction in paw edema: 65%
[2]; 50 microgram per 100 g body weight i.p., first value (1 hour)
  reduction in paw edema: 30%
[2]; 50 microgram per 100 g body weight i.p., second value (3rd hour)
  reduction in paw edema: 57%
[2]; 50 microgram per 100 g body weight i.p., third value (5th hour)
  reduction in paw edema: 65%
